Our source for the IC50 values is US20250179017A1 (GUANGDONG NEWOPP BIOPHARMACEUTICALS CO., LTD., priority 2022, published 2025).

The target in this assay is T1, human EP2 (PTGER2) (Homo sapiens, UniProt P43116).
T1 construct: Cayman Chemical (Human EP2 Reporter Assay Kit)
In words: EP2 antagonist assay (HEK-293 CNG membrane potential cAMP assay / 293T SEAP reporter assay, PGE2-stimulated). Type of assay: cell-based. Particulars: EP2 antagonist activity; concentration for 50% inhibition of signal compared to DMSO. The method in brief: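 Two formats. In a CRE-SEAP reporter assay, reverse-transfected 293T cells received compound with PGE2 (13 nM final) for 6-8 h, then luminescence was read. In the ACTOne CNG format, HEK-293 cells were preincubated with compound for 15 min at RT, stimulated with 5 nM PGE2 for 30 min, and read by membrane-potential dye fluorescence. IC50 was taken versus DMSO.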
In general terms: cAMP levels reflect the balance of adenylyl cyclase and phosphodiesterase activity.

T1 sequence (P43116 whole entry): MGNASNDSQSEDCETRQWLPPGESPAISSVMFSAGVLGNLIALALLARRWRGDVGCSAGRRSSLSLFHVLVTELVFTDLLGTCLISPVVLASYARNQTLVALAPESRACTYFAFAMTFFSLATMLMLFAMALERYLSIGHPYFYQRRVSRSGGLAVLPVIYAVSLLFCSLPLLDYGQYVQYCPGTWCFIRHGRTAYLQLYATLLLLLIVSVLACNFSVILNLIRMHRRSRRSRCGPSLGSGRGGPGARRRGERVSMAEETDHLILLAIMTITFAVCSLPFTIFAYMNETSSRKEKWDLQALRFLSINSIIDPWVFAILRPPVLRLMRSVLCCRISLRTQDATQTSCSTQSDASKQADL

The term IC50 denotes the concentration at which inhibition is half-maximal. Take `C[C@H](NC(=O)c1cc(-c2ccc(F)cc2)cc2cnn(Cc3ccc(C(F)(F)F)cc3)c12)c1ccc(C(=O)O)cc1` [Example 194, (S)-4-(1-(5-(4-fluorophenyl)-1-(4-(trifluoromethyl)benzyl)-1H-indazole-7-carboxamido)ethyl)benzoic acid]: the 50% inhibitory concentration (IC50) is < 0.1 µM. `C[C@H](NC(=O)c1cc(-c2ccc(F)c(F)c2)cc2cnn(Cc3ccc(C(F)(F)F)cc3)c12)c1ccc(C(=O)O)cc1` [Example 195, (S)-4-(1-(5-(3,4-difluorophenyl)-1-(4-(trifluoromethyl)benzyl)-1H-indazole-7-carboxamido)ethyl)benzoic acid]: the IC50 is < 0.1 µM. On to `C[C@H](NC(=O)c1cc(-c2ccccc2)cc2cnn([C@H](C)c3ccc4ccccc4c3)c12)c1ccc(C(=O)O)cc1` [Example 196, 4-((S)-1-(1-((R)-1-(naphthalen-2-yl)ethyl)-5-phenyl-1H-indazole-7-carboxamido)ethyl)benzoic acid], for which the concentration for half-maximal inhibition (IC50) is < 0.1 µM. Regarding `C[C@H](NC(=O)c1cc(-c2ccccc2)cc2cnn([C@@H](C)c3ccc4ccccc4c3)c12)c1ccc(C(=O)O)cc1` [Example 197, 4-((S)-1-(1-((S)-1-(naphthalen-2-yl)ethyl)-5-phenyl-1H-indazole-7-carboxamido)ethyl)benzoic acid], the IC50 fell in the range of 0.1 to 1 µM. In the case of `C[C@H](NC(=O)c1cc(-c2ccccc2)cc2cnn(Cc3ccc(-c4ccccc4)cc3)c12)c1ccc(C(=O)O)cc1` [Example 198, (S)-4-(1-(1-([1,1′-biphenyl]-4-ylmethyl)-5-phenyl-1H-indazole-7-carboxamido)ethyl)benzoic acid], the IC50 was < 0.1 µM. For the compound `C[C@H](NC(=O)c1cc(-c2ccc(F)cc2)cc2cnn(Cc3ccc(-c4ccccc4)cc3)c12)c1ccc(C(=O)O)cc1` [Example 199, (S)-4-(1-(1-([1,1′-biphenyl]-4-ylmethyl)-5-(4-fluorophenyl)-1H-indazole-7-carboxamido)ethyl)benzoic acid], the half-maximal inhibitory concentration (IC50) was < 0.1 µM. To `C[C@H](NC(=O)c1cc(-c2cc(F)cc(F)c2)cc2cnn(Cc3ccc(-c4ccccc4)cc3)c12)c1ccc(C(=O)O)cc1` [Example 200, (S)-4-(1-(1-([1,1′-biphenyl]-4-ylmethyl)-5-(3,5-difluorophenyl)-1H-indazole-7-carboxamido)ethyl)benzoic acid] belongs < 0.1 µM; to `C[C@H](NC(=O)c1cc(-c2ccc(F)c(F)c2)cc2cnn(Cc3ccc(-c4ccccc4)cc3)c12)c1ccc(C(=O)O)cc1` [Example 201, (S)-4-(1-(1-([1,1′-biphenyl]-4-ylmethyl)-5-(3,4-difluorophenyl)-1H-indazole-7-carboxamido)ethyl)benzoic acid], < 0.1 µM; to `C[C@H](NC(=O)c1cc(-c2ccccc2)cc2cnn(Cc3ccc(-c4ccc(F)cc4)cc3)c12)c1ccc(C(=O)O)cc1` [Example 202, (S)-4-(1-(1-((4′-fluoro-[1,1′-biphenyl]-4-yl)methyl)-5-phenyl-1H-indazole-7-carboxamido)ethyl)benzoic acid], < 0.1 µM. The figure for `C[C@H](NC(=O)c1cc(-c2ccc(F)cc2)cc2cnn(Cc3ccc(-c4ccc(F)cc4)cc3)c12)c1ccc(C(=O)O)cc1` [Example 203, (S)-4-(1-(1-((4′-fluoro-[1,1′-biphenyl]-4-yl)methyl)-5-(4-fluorophenyl)-1H-indazole-7-carboxamido)ethyl)benzoic acid] is < 0.1 µM; for `C[C@H](NC(=O)c1cc(-c2cc(F)cc(F)c2)cc2cnn(Cc3ccc(-c4ccc(F)cc4)cc3)c12)c1ccc(C(=O)O)cc1` [Example 204, (S)-4-(1-(5-(3,5-difluorophenyl)-1-((4′-fluoro-[1,1′-biphenyl]-4-yl)methyl)-1H-indazole-7-carboxamido)ethyl)benzoic acid] it is < 0.1 µM; for `C[C@H](NC(=O)c1cc(-c2ccc(F)c(F)c2)cc2cnn(Cc3ccc(-c4ccc(F)cc4)cc3)c12)c1ccc(C(=O)O)cc1` [Example 205, (S)-4-(1-(5-(3,4-difluorophenyl)-1-((4′-fluoro-[1,1′-biphenyl]-4-yl)methyl)-1H-indazole-7-carboxamido)ethyl)benzoic acid] it is < 0.1 µM.
